Measurements as given in the NIST ThermoML archive (doi:10.1021/acs.jced.8b00176).
± gives the expanded uncertainty stated by the source.

Assay: xn = mol fraction of the nth substance listed
Conditions: 100 kPa, Liquid; for viscosity: Falling or rolling sphere viscometry; for speed of sound: Frequency=3 MHz, Single path-length method; for mass density: Vibrating tube method

CC#N [acetonitrile] + CN(C)C=O
Conditions | mass density, 298.15 K [kg/m3] | mass density, 303.15 K [kg/m3] | mass density, 308.15 K [kg/m3] | speed of sound, 298.15 K [m/s] | speed of sound, 303.15 K [m/s] | speed of sound, 308.15 K [m/s] | viscosity, 298.15 K [mPa·s] | viscosity, 303.15 K [mPa·s] | viscosity, 308.15 K [mPa·s]
x2 = 0 | 776.714 ± 2 | 771.289 ± 2 | 765.833 ± 2 | 1278.5 ± 2.2 | 1258.4 ± 2.2 | 1238.2 ± 2.2 | 0.34 | 0.32 | 0.31
x2 = 0.0989 | 802.565 ± 2 | 797.299 ± 2 | 792.024 ± 2 | 1302.5 ± 2.2 | 1282.7 ± 2.2 | 1262.9 ± 2.2 | 0.4 | 0.39 | 0.37
x2 = 0.1916 | 826.376 ± 2 | 821.229 ± 2 | 816.008 ± 2 | 1322 ± 2.2 | 1302.3 ± 2.2 | 1282.5 ± 2.2 | 0.44 ± 0.2 | 0.42 ± 0.2 | 0.4
x2 = 0.2925 | 844.614 ± 2 | 839.435 ± 2 | 834.219 ± 2 | 1339.6 ± 2.2 | 1320.1 ± 2.2 | 1300.5 ± 2.2 | 0.48 ± 0.2 | 0.46 ± 0.2 | 0.44 ± 0.2
x2 = 0.3932 | 865.725 ± 2 | 860.639 ± 2 | 855.56 ± 2 | 1361.6 ± 2.2 | 1342.2 ± 2.2 | 1322.6 ± 2.2 | 0.54 ± 0.2 | 0.51 ± 0.2 | 0.49 ± 0.2
x2 = 0.5029 | 880.889 ± 2 | 875.938 ± 2 | 870.924 ± 2 | 1377.5 ± 2.2 | 1358.1 ± 2.2 | 1338.6 ± 2.2 | 0.61 ± 0.2 | 0.57 ± 0.2 | 0.54 ± 0.2
x2 = 0.6002 | 895.421 ± 2 | 890.518 ± 2 | 885.607 ± 2 | 1395.9 ± 2.2 | 1376.6 ± 2.2 | 1357.2 ± 2.2 | 0.65 ± 0.2 | 0.61 ± 0.2 | 0.58 ± 0.2
x2 = 0.6931 | 907.546 ± 2 | 902.756 ± 2 | 897.887 ± 2 | 1411.4 ± 2.2 | 1392 ± 2.2 | 1372.6 ± 2.2 | 0.69 ± 0.2 | 0.65 ± 0.2 | 0.61 ± 0.2
x2 = 0.7926 | 922.026 ± 2 | 917.22 ± 2 | 912.402 ± 2 | 1429.2 ± 2.2 | 1409.9 ± 2.2 | 1390.5 ± 2.2 | 0.75 ± 0.2 | 0.7 ± 0.2 | 0.66 ± 0.2
x2 = 0.8996 | 932.676 ± 2 | 927.901 ± 2 | 923.153 ± 2 | 1442.8 ± 2.2 | 1423.3 ± 2.2 | 1404 ± 2.2 | 0.79 ± 0.2 | 0.75 ± 0.2 | 0.71 ± 0.2
